33 molecules from patent US20140322434A1, “METHODS FOR PRODUCING ELECTROPHOTOGRAPHIC PHOTOSENSITIVE MEMBER AND ORGANIC DEVICE EACH HAVING CHARGE TRANSPORTING LAYER” (CANON KABUSHIKI KAISHA, priority 2011, published 2014) can be followed below.

Structures are written as SMILES. Read-outs that look alike come from different tables or passages of the source.

Series [1] in a line: Solubility in water at 25° C. and 1 atm. On the procedure:
In the method for producing an electrophotographic photosensitive member of the present invention, the charge transporting substance and the binder resin are dissolved in the first liquid to prepare the first solution. […] Specific examples of the first liquid are shown in Table 1, but are not limited to the examples in Table 1.
Then, the second solution will be described.

A short description of series [2]: Solubility of second liquid in the first liquid at 25° C. and 1 atm. To be noted: for solubility in first solution: liquids of Comparative Examples 5 to 11; for Solubility in first liquid: first liquid described in Table 1.
Where [3] appears, read: liquids of Comparative Examples 5 to 11, 25° C. and 1 atm.
Setting [4] is: second liquid, 25° C. and 1 atm.

Turning to `CC(=O)OCCCCOC(C)=O` [Liquid (6), 1,4-butanediol diacetate, reference compound], the Solubility in water in series [1] (setting [3]) was determined as 4.2 mass %. The “solubility in first solution” value in series [2] is listed as not below 5.0 mass %.

`CCOCCOCCOC` [Second liquid example (26), diethylene glycol methyl ethyl ether]: the “Solubility in first liquid” value in series [2] is reported as 5.0 mass % or.

With `Clc1ccccc1` [First liquid example (4), Chlorobenzene], in series [1] (first liquid, 25° C. and 1 atm), the Solubility in water is reported as 0.1 mass %.

For the molecule `C=CCOCCO` [Second liquid example (20), ethylene glycol monoallyl ether], the “Solubility in first liquid” value in series [2] stood at 5.0 mass % or.

With `COCCOCCOC` [Second liquid example (11), diethylene glycol dimethyl ether], in series [2], the “Solubility in first liquid” value turned out to be 5.0 mass % or.

On to `CC(C)COCCO` [Second liquid example (19), ethylene glycol monoisobutyl ether], for which the “Solubility in first liquid” value in series [2] was determined as 5.0 mass % or.

With `CCCCOC(C)COC(C)COC(C)CO` (stereo not drawn) [Liquid (5), tripropylene glycol n-butyl ether, reference compound], the Solubility in water in series [1] (setting [3]) was 2.9 mass %. For the same molecule, the “solubility in first solution” value in series [2] is not below 5.0 mass %.

Take `C1OCOCO1` [Second liquid example (6), 1,3,5-trioxane]: the Solubility in water in series [1] (setting [4]) was 21.1 mass %. Besides, the “Solubility in first liquid” value in series [2] is recorded as 5.0 mass % or.

`COC(C)CCO` (stereo not drawn) [Second liquid example (33), 3-methoxybutanol]: the “Solubility in first liquid” value in series [2] amounted to 5.0 mass % or.

For `COCC(C)O` (stereo not drawn) [Second liquid example (21), propylene glycol monomethyl ether], the “Solubility in first liquid” value in series [2] worked out at 5.0 mass % or.

On to `CCOC(C)=O` [Second liquid example (31), ethyl acetate], for which, in series [2], the “Solubility in first liquid” value was 5.0 mass % or.

With `C1COCOC1` [Second liquid example (4), 1,3-dioxane], in series [2], the “Solubility in first liquid” value came to 5.0 mass % or.

With `COCC(C)OC(C)=O` (stereo not drawn) [Second liquid example (25), propylene glycol monomethyl ether acetate], in series [1] (setting [4]), the Solubility in water turned out to be 20.5 mass %. In addition, in series [2], the “Solubility in first liquid” value came to 5.0 mass % or.

In series [1] (first liquid, 25° C. and 1 atm), `CCc1ccccc1` [First liquid example (6), Ethylbenzene] gave a Solubility in water of 0.0 mass %.

The molecule `CCCCOCC(C)O` (stereo not drawn) [Second liquid example (24), propylene glycol monobutyl ether] came in with a Solubility in water in series [1] (setting [4]) of 6.4 mass %. Further, in series [2], the “Solubility in first liquid” value came out at 5.0 mass % or.

On to `CCCCOCC(C)O` (stereo not drawn) [Second liquid example (13), propylene glycol n-butyl ether], for which the Solubility in water in series [1] (setting [4]) was 6.0 mass %. Further, in series [2], the “Solubility in first liquid” value is given as 5.0 mass % or.

`CCOCCOCCOCC` [Second liquid example (27), diethylene glycol diethyl ether]: the “Solubility in first liquid” value in series [2] came to 5.0 mass % or.

On to `COC(C)COC(C)COC(C)CO` (stereo not drawn) [Second liquid example (23), tripropylene glycol monomethyl ether], for which, in series [2], the “Solubility in first liquid” value was 5.0 mass % or.

On to `CC(=O)OCC(C)OC(C)=O` (stereo not drawn) [Second liquid example (29), propylene glycol diacetate], for which the “Solubility in first liquid” value in series [2] is recorded as 5.0 mass % or.

In the case of `Cc1ccccc1C` [First liquid example (5), o-Xylene], in series [1] (first liquid, 25° C. and 1 atm), the Solubility in water amounted to 0.0 mass %.

Turning to `COC(C)CCOC(C)=O` (stereo not drawn) [Second liquid example (34), 3-methoxybutyl acetate], in series [2], the “Solubility in first liquid” value is given as 5.0 mass % or.

The molecule `COCOC` [Second liquid example (2), dimethoxymethane] had a Solubility in water in series [1] (setting [4]) of 32.3 mass %. Also, in series [2], the “Solubility in first liquid” value came to 5.0 mass % or.

As for `COC(C)COC(C)CO` (stereo not drawn) [Second liquid example (22), dipropylene glycol monomethyl ether], the “Solubility in first liquid” value in series [2] is on record as 5.0 mass % or.

For the molecule `CCCOCC(C)O` (stereo not drawn) [Second liquid example (14), propylene glycol monopropyl ether], in series [2], the “Solubility in first liquid” value was 5.0 mass % or.

As to `COCC(C)OCC(C)OC` (stereo not drawn) [Second liquid example (28), dipropylene glycol dimethyl ether], in series [2], the “Solubility in first liquid” value was found to be 5.0 mass % or.

On to `C1CCOOC1` [Second liquid example (3), 1,2-dioxane], for which the “Solubility in first liquid” value in series [2] is 5.0 mass % or.

Regarding `COCCOC` [Second liquid example (12), ethylene glycol dimethyl ether], the “Solubility in first liquid” value in series [2] is 5.0 mass % or.

The molecule `CCCC(C)=O` [Second liquid example (8), 2-pentanone] registered a Solubility in water in series [1] (setting [4]) of 5.9 mass %. The “Solubility in first liquid” value in series [2] is on record as 5.0 mass % or.

For `OCCOCCOc1ccccc1` [Liquid (2), diethylene glycol monophenyl ether, reference compound], in series [1] (setting [3]), the Solubility in water is reported as 3.4 mass %. Also, the “solubility in first solution” value in series [2] is given as not below 5.0 mass %.

Consider `CCOCCOCCO` [Second liquid example (16), diethylene glycol monoethyl ether], for which the “Solubility in first liquid” value in series [2] was determined as 5.0 mass % or.

Molecule `CCOc1ccccc1` [First liquid example (7), Phenetole] came in with a Solubility in water in series [1] (first liquid, 25° C. and 1 atm) of 0.1 mass %.

Consider `CC(=O)OC(C)C` [Liquid (4), isopropyl acetate, reference compound], for which the Solubility in water in series [1] came out at 2.9 mass %.

The molecule `Clc1ccccc1Cl` [First liquid example (3), o-Dichlorobenzene] gave a Solubility in water in series [1] of 0.0 mass %.
